Reference: PubChem BioAssay (NCI)
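96-well plates; 48 h exposure; 5 concentrations. Endpoints by linear interpolation between flanking doses. Not reached: highest tested concentration assigned. GI50: concentration for 50% inhibition of growth. Definition used: TGI = concentration required for complete inhibition of growth.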

Legend:
Assay in all cases: NCI anticancer screen, dose series, 48 h
SF-268 CNS = test system: SF-268 CNS
SK-OV-3 ovarian = test system: SK-OV-3 ovarian
MDA-MB-435 = test system: MDA-MB-435
SK-MEL-2 melanoma = test system: SK-MEL-2 melanoma
MALME-3M melanoma = test system: MALME-3M melanoma
UO-31 renal = test system: UO-31 renal
HOP-62 NSCLC = test system: HOP-62 NSCLC
RXF 393 renal = test system: RXF 393 renal
HCT-15 colon = test system: HCT-15 colon
A549 NSCLC = test system: A549 NSCLC
HOP-92 NSCLC = test system: HOP-92 NSCLC
UACC-257 melanoma = test system: UACC-257 melanoma
T-47D breast = test system: T-47D breast
NCI-H522 lung = test system: NCI-H522 lung
NCI-H226 lung = test system: NCI-H226 lung
IGROV1 ovarian = test system: IGROV1 ovarian
SK-MEL-28 melanoma = test system: SK-MEL-28 melanoma
SW-620 colon = test system: SW-620 colon
HS 578T breast = test system: HS 578T breast
U251 CNS = test system: U251 CNS
OVCAR-5 ovarian = test system: OVCAR-5 ovarian
786-0 renal = test system: 786-0 renal
HCC-2998 colon = test system: HCC-2998 colon
LOX IMVI melanoma = test system: LOX IMVI melanoma
SF-539 CNS = test system: SF-539 CNS
MCF7 breast = test system: MCF7 breast
MOLT-4 leukemia = test system: MOLT-4 leukemia
OVCAR-8 ovarian = test system: OVCAR-8 ovarian
OVCAR-4 ovarian = test system: OVCAR-4 ovarian
UACC-62 melanoma = test system: UACC-62 melanoma
HL-60(TB) leukemia = test system: HL-60(TB) leukemia
PC-3 prostate = test system: PC-3 prostate
DU-145 prostate = test system: DU-145 prostate
HT29 colon = test system: HT29 colon
SR leukemia = test system: SR leukemia
RPMI-8226 leukemia = test system: RPMI-8226 leukemia
A498 renal = test system: A498 renal
SNB-75 CNS = test system: SNB-75 CNS
SK-MEL-5 melanoma = test system: SK-MEL-5 melanoma
BT-549 breast = test system: BT-549 breast
KM12 colon = test system: KM12 colon
HCT-116 colon = test system: HCT-116 colon
SNB-19 CNS = test system: SNB-19 CNS
MDA-MB-231 breast = test system: MDA-MB-231 breast
OVCAR-3 ovarian = test system: OVCAR-3 ovarian
NCI/ADR-RES ovarian = test system: NCI/ADR-RES ovarian
NCI-H23 lung = test system: NCI-H23 lung
CAKI-1 renal = test system: CAKI-1 renal
TK-10 renal = test system: TK-10 renal
K-562 leukemia = test system: K-562 leukemia
NCI-H460 lung = test system: NCI-H460 lung
COLO 205 colon = test system: COLO 205 colon
SN12C renal = test system: SN12C renal
CCRF-CEM leukemia = test system: CCRF-CEM leukemia
M14 melanoma = test system: M14 melanoma

## COc1ccc(-c2nc(-c3nc4ccc(C)cc4[nH]3)c3ccccn23)cc1
SF-268 CNS
  GI50: 2.8 µM
  TGI: > 100 µM
SK-OV-3 ovarian
  GI50: 6.95 µM
  TGI: > 100 µM
MDA-MB-435
  GI50: 2.3 µM
  TGI: 8.46 µM
SK-MEL-2 melanoma
  GI50: 2.51 µM
  TGI: 5.71 µM
MALME-3M melanoma
  GI50: 2.83 µM
  TGI: 8.62 µM
UO-31 renal
  GI50: 1.67 µM
  TGI: 6.09 µM
HOP-62 NSCLC
  GI50: 3.72 µM
  TGI: > 100 µM
RXF 393 renal
  GI50: 7.73 µM
  TGI: > 100 µM
HCT-15 colon
  GI50: 2.83 µM
  TGI: > 100 µM
A549 NSCLC
  GI50: 2.67 µM
  TGI: > 100 µM
HOP-92 NSCLC
  GI50: 0.416 µM
  TGI: 4.36 µM
UACC-257 melanoma
  GI50: 2.41 µM
  TGI: 6.17 µM
T-47D breast
  GI50: 2.27 µM
  TGI: 8.06 µM
NCI-H522 lung
  GI50: 1.95 µM
  TGI: 4.63 µM
NCI-H226 lung
  GI50: 3.88 µM
  TGI: > 100 µM
IGROV1 ovarian
  GI50: 2.18 µM
  TGI: 6.12 µM
SK-MEL-28 melanoma
  GI50: 4.61 µM
  TGI: > 100 µM
SW-620 colon
  GI50: 3.12 µM
  TGI: > 100 µM
HS 578T breast
  GI50: 2.17 µM
  TGI: 6.05 µM
U251 CNS
  GI50: 3.27 µM
  TGI: > 100 µM
OVCAR-5 ovarian
  GI50: 4.69 µM
  TGI: > 100 µM
786-0 renal
  GI50: 3.67 µM
  TGI: > 100 µM
HCC-2998 colon
  GI50: 2.93 µM
  TGI: 7.01 µM
LOX IMVI melanoma
  GI50: 3.03 µM
  TGI: 7.73 µM
SF-539 CNS
  GI50: 3.32 µM
  TGI: > 100 µM
MCF7 breast
  GI50: 2.7 µM
  TGI: > 100 µM
MOLT-4 leukemia
  GI50: 2.17 µM
  TGI: 7.99 µM
OVCAR-8 ovarian
  GI50: 2.05 µM
  TGI: 6.15 µM
OVCAR-4 ovarian
  GI50: 3.81 µM
  TGI: > 100 µM
UACC-62 melanoma
  GI50: 2.14 µM
  TGI: 5.66 µM
HL-60(TB) leukemia
  GI50: 2.58 µM
  TGI: 6.53 µM
PC-3 prostate
  GI50: 1.88 µM
  TGI: 7.68 µM
DU-145 prostate
  GI50: 2.85 µM
  TGI: > 100 µM
HT29 colon
  GI50: 3.36 µM
  TGI: > 100 µM
SR leukemia
  GI50: 2.77 µM
  TGI: > 100 µM
RPMI-8226 leukemia
  GI50: 1.47 µM
  TGI: 3.93 µM
A498 renal
  GI50: 2.47 µM
  TGI: 9.65 µM
SNB-75 CNS
  GI50: 5.49 µM
  TGI: > 100 µM
SK-MEL-5 melanoma
  GI50: 1.39 µM
  TGI: 2.72 µM
BT-549 breast
  GI50: 2.55 µM
  TGI: 6.36 µM
KM12 colon
  GI50: 2.38 µM
  TGI: 9.07 µM
HCT-116 colon
  GI50: 3.26 µM
  TGI: 9.46 µM
SNB-19 CNS
  GI50: 2.97 µM
  TGI: > 100 µM
MDA-MB-231 breast
  GI50: 3.09 µM
  TGI: > 100 µM
OVCAR-3 ovarian
  GI50: 2.99 µM
  TGI: 10.2 µM
NCI/ADR-RES ovarian
  GI50: 2.71 µM
  TGI: 8.06 µM
NCI-H23 lung
  GI50: 3.85 µM
  TGI: > 100 µM
CAKI-1 renal
  GI50: 2.83 µM
  TGI: > 100 µM
TK-10 renal
  GI50: 3.39 µM
  TGI: 9.22 µM
K-562 leukemia
  GI50: 2.92 µM
  TGI: > 100 µM
NCI-H460 lung
  GI50: 2.28 µM
  TGI: 6.11 µM
COLO 205 colon
  GI50: 3.23 µM
  TGI: > 100 µM
SN12C renal
  GI50: 3.08 µM
  TGI: > 100 µM
CCRF-CEM leukemia
  GI50: 1.97 µM
  TGI: 6.28 µM
M14 melanoma
  GI50: 3.15 µM
  TGI: 8.6 µM
